# In PMC8553373 (The Journal of Biological Chemistry, 2021):
# Target: Nsp9COV19(C73S) as substrate of Nsp12COV19 NiRAN domain (Severe acute respiratory syndrome coronavirus 2, UniProt P0DTD1, C4213S)
# Assay type: biochemical, SARS-CoV-2
compound,measurement,value
"C=C1C(=O)[C@]23[C@H](O)[C@H]1CC[C@H]2[C@@]12CO[C@]3(O)[C@@H](O)[C@@H]1C(C)(C)CC[C@@H]2O [Compound 1, Oridonin]",level of inhibition with mutant Nsp9 compared with wild-type,approximately threefold lower
